Experimental data as given in patent publication US4931288A, “Controlled release compositions (II)” (Lloyds Bank PLC, priority 1979, dated 1990).
Each block holds one compound with its values, some of them ahead of it.

Experiments:
[1] = In vitro release of prostaglandin from dry polymer cylinders/pessaries/slices into phosphate buffer pH 7.4 via 3H activity; details: for T1/2: dried polymer sample, pH 7.4, 37°; for t1/2: pH 7.4, 37° C.
Procedure: 19.08 g Prostin E2 at a 1% w/v solution in dephydrated ethanol is weighed. This is equivalent to 24.15 ml and therefore 0.2415 g PGE2.
25 of the pessaries (2.6 mm×10 mm×10 mm total weight 23.02 g) are then put in a polythene bag. The swelling solution is added, and the bag is sealed. The pessaries are then allowed to swell in the PGE2 solution for 20 hours by which time nearly all the solution has been absorbed by the polymer. The bag is cut open and the swollen pessaries are removed and weighed. Uptake of solution: 104.75 g. Average PGE2 content/pessary 9.3 mg.
The swollen pessaries are then vacuum dried at room temperature.
An identical pessary is prepared with the addition of 1 μCi ^3 H labelled PGE2 to study in vitro the release of PGE2 from the dry pessary into phosphate buffer pH 7.4 at 37° C. through measurement of ^3 H activity of the buffer solution which is replaced by fresh buffer at regular intervals.
A slice of the polymer 1 mm×11 mm×22 mm weighing 0.2678 g is added to the Ono solution in a polythene bag which is then sealed. After 6 hours swelling the bag is cut open and the swollen gel is weighed.
A slice of PEO 1.2×24×40 mm weighing 1.3083 g is added to the solution in a polythene bag which is then sealed.

[2] = In vitro release of prostaglandin from swollen (undried) polymer cylinders/pessaries into phosphate buffer pH 7.4 at 37° C.; assay type: physicochemical; details: for t1/2: pH 7.4, 37°
Procedure: (B) The procedure described in (A) is followed but the swollen cylinders obtained after 24 hours treatment with the PGE2 solution are not dried but are tested directly for the release of PGE2 into pH 7.4 phosphate buffer at 37° C. In this instance a typical half life is of the order of 10 hours.
To study the release of PGE2 from a fully swollen pessary into phosphate buffer pH 7.4 at 37° the polymer is swollen in an ethanol/water solution of PGE2 of 0.87 g C2 H5 OH solution of 1% w/v Prostin E2 contains 11 mg PGE2 0.09 g C2 H5 OH containing 1 μCi of ^3 HPGE2 is added, then 3.56 g H2 O. A slice of polymer 3.1 mm×10 mm×30 mm weighing 1.13 g is added to the prepared PGE2 solution in 3.7/1, w/w, water/ethanol in a polythene bag. The bag is sealed and the polymer allowed to swell over 20 hours. The swollen polymer slice is then removed and the surface wiped dry with a tissue before weighing. Uptake of solution: 4.44 g i.e. almost all the PGE2 is contained in the swollen gel. The pessary is rinsed in distilled water and then transferred to phosphate buffer solution pH 7.4 at 37° C. The release of PGE2 into the surrounding solution is measured by frequent regular replacement of the buffer and counting the activity of ^3 H in the withdrawn solution. […] It is also possible to calculate the diffusion coefficient of PGE2 in the swollen gel D=0.83×10^-6 cm^2 sec^-1.

[3] = Clinical pilot study of hydrogel vaginal pessaries containing PGE2 10 mg (induction of labour); assay type: in vivo, human
Procedure: Hydrogel vaginal pessaries, formulated as above, each containing PGE2 10 mg, have been evaluated clinically in a pilot study.

[4] = Clinical induction of abortion; assay type: in vivo, human; details: from 1 to 2.5 mg

Structure (SMILES): CCCCC(C)(C)C(O)C=CC1C(O)CC(=O)C1CC=CCCCC(=O)Oc1ccc(C=NNC(N)=O)cc1 (stereo not drawn) [PG ester, 16,16 dimethyl prostaglandin E2 benzaldehyde semi-carbazone]
duration of the release pattern ([1]; Example 14, 0.25 mm slice): 2 weeks
release rate ([1]; Example 14, 0.25 mm slice, day 2): 50 µg/h
release rate ([1]; Example 14, 0.25 mm slice, overnight): 13 µg/h
character of the release ([1]; Example 14, thin (0.25 mm) sample): essentially that of a fully swollen device containing a dispersion rather than a solution of a low solubility prostaglandin analogue

Structure (SMILES): CCCCC(C)(C)[C@H](O)/C=C/[C@H]1[C@H](O)CC(=O)[C@@H]1C/C=C\CCCC(=O)OC [Ono, 16,16-dimethyl PGE2, methyl ester]
dependence of half life t1/2 on thickness ([1]; Example 13, 3 different thicknesses): directly proportional to the square of the thickness
T1/2 ([1]; Example 13, thickness 0.25 mm): 0.5 h
T1/2 ([1]; Example 13, thickness 0.65 mm): 3.0 h
T1/2 ([1]; Example 13, thickness 1.00 mm): 6.3 h
half life of Ono in this sample ([1]; Example 13, dried slice 1 mm×11 mm×22 mm, phosphate buffer pH 7.4, 37°): 6.3 h

Structure (SMILES): CCCCC[C@H](O)/C=C/[C@H]1[C@H](O)CC(=O)[C@@H]1C/C=C\CCCC(=O)O [PGE2]
half life for release of the drug ([1]; Example 10(A), dry cylinders, PEG 6,000/MDI/TMP (0.75 molar) polymer, pH 7.4 phosphate buffer, 37° C., typical): ~20 h
t1/2 ([1]; Example 12, dry pessary, thickness 1.2 mm): 1.4 h
t1/2 ([1]; Example 12, dry pessary, thickness 1.5 mm): 2.4 h
t1/2 ([1]; Example 12, dry pessary, thickness 1.7 mm): 2.7 h
t1/2 ([1]; Example 12, dry pessary, thickness 2.6 mm): 7.0 h
t1/2 ([1]; Example 12, dry pessary, thickness 2.9 mm): 8.0 h
t1/2 ([1]; Example 12, dry pessary, thickness 3.4 mm): 12.0 h
half life t1/2 of the PGE2 in this polymer ([1]; Example 12, dry pessary, phosphate buffer pH 7.4, 37° C.): 7 h
half life for release ([2]; Example 10(B), swollen cylinders not dried, pH 7.4 phosphate buffer, 37° C., typical): ~10 h
half life in the fully swollen device relative to the initially dry device ([2]; Example 12): approximately half of the half life in the initially dry device
constancy of the rate of release ([2]; Example 12, fully swollen devices): do not provide the desirable reasonably constant period of the rate of release
half life t1/2 of PGE2 in the swollen pessary ([2]; Example 12, fully swollen pessary 3.1 mm×10 mm×30 mm, phosphate buffer pH 7.4, 37°): 2.7 h
t1/2 ([2]; Example 12, fully swollen pessary, thickness 1.2 mm): 0.7 h
t1/2 ([2]; Example 12, fully swollen pessary, thickness 2.4 mm): 2.0 h
t1/2 ([2]; Example 12, fully swollen pessary, thickness 3.1 mm): 2.7 h
diffusion coefficient of PGE2 in the swollen gel, D ([2]; Example 12, fully swollen pessary, calculated from release measurements): 0.83×10^-6 cm^2 sec^-1
labour and delivery outcome ([3]; patients with average or favourable induction prospects, PGE2 treatment alone, without orthodox induction): became established in labour and made good progress, with successful vaginal delivery
cervical ripening ([3]; unfavourable patients): progressive
establishment in labour ([3]; unfavourable patients): all were established in labour
latent phase of labour ([3]; unfavourable patients): expectedly longer
agreement of clinical experience with in vitro release ([3]; vaginal pessaries, PGE2 10 mg): accorded well with in vitro release studies
course of uterine activity ([3]; vaginal pessaries, PGE2 10 mg): maintained or gradually increased
time to appreciable uterine activity, not requiring analgesia ([3]; vaginal pessaries, PGE2 10 mg): 1 to 2 h
ripening of the cervix ([3]; vaginal pessaries, PGE2 10 mg, all cases): significant `ripening` of the cervix in all cases

Structure (SMILES): CCCCC(C)(C)[C@@H](O)/C=C/[C@H]1[C@H](O)CC(=O)[C@@H]1CCCC/C=C/C(=O)O (relative stereo) [16:16-dimethyl-trans-Δ^2 -PGE1]
induction of abortion [4]: Induction of abortion has been effected

More lines, now with the values ahead:

half life of release ([1]; Example 11, dry cylinders, PEG 6,000/MDI/TMP (0.75 molar) polymer, pH 7.4 phosphate buffer, typical): ~95 h
Structure (SMILES): CCCCC(C)(C)[C@H](O)/C=C/[C@H]1[C@H](O)CC(=O)[C@@H]1CCCC/C=C/C(=O)OC [16,16-dimethyl-trans Δ^2 -PGE1 methyl ester]

half-life of the drug in the pessary ([1]; Example 15, dried slice 1.2×24×40 mm, buffer pH 7.4, 37° C.): 3.7 h
Structure (SMILES): CS(=O)(=O)NC(=O)CCC/C=C\C[C@H]1C(=O)C[C@@H](O)[C@@H]1/C=C/[C@@H](O)COc1ccccc1 [N methanesulphonyl 15z, 11α, 13E 15α)-9-Oxo-11,15-dihydroxy-16-phenoxy-w-tetranorprosta-5,13 dien-1-amide]
